Results published in publication PMC7039932, “Development of Relaxin-3 Agonists and Antagonists Based on Grafted Disulfide-Stabilized Scaffolds” (Frontiers in Chemistry, 2020).
Each block holds one molecule with its values, some of them ahead of it. Where a SMILES comes first, the peptide text is derived from it. Bridges are numbered along the chain shown (N, C = ends). Where no end group is shown, it is not given here.

Assays:
In vitro serum stability = assay type: in vitro ADME, human; conditions: for half-life at 2.5 µg/mL: human male pooled serum, 570 μl spiked with 30 μl peptide stock (0.05 μg/μl in H2O), quenched with 0.1 M ammonium acetate pH 3, SPE, LC-MS MRM, one phase decay, at least three replicates, read-out: Half-life in serum (T1/2) (converted)
Description: The in vitro serum stability was determined by peptide spiking, as previously described (Hossain et al., [2015]). Briefly, 570 μl human male pooled serum was spiked with 30 μl peptide stock solution (0.05 μg/μl in H2O). 100 μl samples were taken out at different time points and quenched with 900 μl ammonium acetate (0.1 M, pH 3). Samples were left on ice for 30 min before being extracted using solid phase extraction cartridges (Oasis HLB 3cc, Waters). Eluted samples were then lyophilized and reconstituted in 1% formic acid. The amount of intact peptide is reported relative to the amount of peptide available at timepoint 0 hr. Quantification was carried out using multiple reaction monitoring on a triple-quad LC-MS (API2000, AB Sciex) and the data analyzed using one phase decay in Prism 7.

RXFP3 [1] = biological target: T1, RXFP3 (Homo sapiens, UniProt Q9NSD7); assay: Inhibition of forskolin-induced cAMP accumulation, pCRE-β-galactosidase reporter, CHO-K1 cells stably expressing RXFP3; assay type: cell-based; conditions: CHO-K1-RXFP3 cells with pCRE-β-galactosidase reporter; 5 μM forskolin; mean ± SEM, number in parentheses = independent experiments in triplicate
T1 construct: expressed in transfected cells; host or cells: CHO-K1 cells stably expressing RXFP3
T1 sequence (Q9NSD7 1-469): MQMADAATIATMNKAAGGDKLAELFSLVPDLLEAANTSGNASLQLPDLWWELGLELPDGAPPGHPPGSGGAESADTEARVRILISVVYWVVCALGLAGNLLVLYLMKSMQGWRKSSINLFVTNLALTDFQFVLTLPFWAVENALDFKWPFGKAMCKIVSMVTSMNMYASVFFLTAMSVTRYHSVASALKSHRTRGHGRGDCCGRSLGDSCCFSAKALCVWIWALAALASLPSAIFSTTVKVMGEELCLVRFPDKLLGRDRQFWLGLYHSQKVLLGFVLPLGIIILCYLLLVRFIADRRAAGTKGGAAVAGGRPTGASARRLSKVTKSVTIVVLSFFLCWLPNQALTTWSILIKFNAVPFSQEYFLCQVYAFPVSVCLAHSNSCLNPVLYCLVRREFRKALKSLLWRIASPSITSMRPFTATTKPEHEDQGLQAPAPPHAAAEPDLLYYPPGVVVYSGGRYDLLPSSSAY
Description: The affinity and activity of the grafted peptides were determined as previously described (Haugaard-Kedström et al., [2015]). Briefly, for competition binding studies CHO-K1 cells stably expressing RXFP3 were incubated with 5 nM Eu-DTPA-R3 B1-22R and increasing concentrations of peptide analogs. Unlabeled R3 B1-22R was used as reference compound. The europium was detected by the addition of enhancement solution and fluorescence recorded using an excitation of 340 nm and emission reading at 614 nm. For agonists the ability of analogs to inhibit cAMP accumulation were tested in CHO-K1 cells stably expressing RXFP3 transfected with a pCRE-β-galactosidase reporter plasmid. Cells were stimulated with 5 μM forskolin and incubated with increasing concentrations of relaxin-3 analogs as previously described (Shabanpoor et al., [2012]). […] Data are expressed as mean ± SEM and analyzed using Prism 8 (GraphPad).
The binding affinity of the grafted peptides were determined using CHO cells stably expressing RXFP3 by measuring increasing concentrations of the grafted peptides' ability to compete for the binding site with europium labeled R3 B1-22R (Haugaard-Kedström et al., [2015]). Activation was measured by assessing the ability of the analogs to inhibit cAMP accumulation induced by forskolin in a reporter assay, as RXFP3 couples to an inhibitory G-protein.

RXFP3 [2] = biological target: T2, RXFP3 (Homo sapiens, UniProt Q9NSD7); assay: competition binding with Eu-R3 B1-22R on CHO-K1 cells
T2 chain: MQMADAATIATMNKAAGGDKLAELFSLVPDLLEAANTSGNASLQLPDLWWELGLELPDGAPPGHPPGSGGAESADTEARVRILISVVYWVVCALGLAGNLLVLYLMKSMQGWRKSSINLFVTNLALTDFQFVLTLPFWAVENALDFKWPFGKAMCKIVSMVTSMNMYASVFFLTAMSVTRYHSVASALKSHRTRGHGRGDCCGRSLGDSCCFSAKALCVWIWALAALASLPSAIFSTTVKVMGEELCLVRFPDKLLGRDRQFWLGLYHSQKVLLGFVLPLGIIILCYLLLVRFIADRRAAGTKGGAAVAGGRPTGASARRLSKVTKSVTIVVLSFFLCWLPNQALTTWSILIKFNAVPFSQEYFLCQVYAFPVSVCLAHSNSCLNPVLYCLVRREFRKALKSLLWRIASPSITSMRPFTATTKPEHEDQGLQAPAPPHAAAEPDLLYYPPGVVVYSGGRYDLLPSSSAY

Molecule: CC[C@H](C)[C@H](NC(=O)[C@H](Cc1ccccc1)NC(=O)[C@H](CCC(=O)O)NC(=O)[C@H](CCCNC(=N)N)NC(=O)CNC(=O)[C@H](CS)NC(=O)[C@H](CC(C)C)NC(=O)[C@H](CCCNC(=N)N)NC(=O)[C@@H](NC(=O)CNC(=O)[C@H](Cc1ccc(O)cc1)NC(=O)[C@@H]1CCCN1C(=O)[C@H](C)NC(=O)[C@H](C)NC(=O)[C@@H](N)CCCNC(=N)N)C(C)C)C(=O)N[C@@H](CCCNC(=N)N)C(=O)N[C@@H](C)C(=O)N[C@H](C(=O)N[C@H](C(=O)N[C@@H](Cc1ccccc1)C(=O)N[C@H](C(=O)N[C@@H](CS)C(=O)NCC(=O)NCC(=O)N[C@@H](CO)C(=O)N[C@@H](CCCNC(=N)N)C(=O)N[C@@H](Cc1c[nH]c2ccccc12)C(=O)O)[C@@H](C)O)[C@@H](C)CC)C(C)C [Analog 2, reference compound]
half-life at 2.5 µg/mL (In vitro serum stability): 0.0517 h

Molecule: CC[C@H](C)[C@@H]1NC(=O)[C@H](C)NC(=O)[C@@H]2CSSC[C@H](N)C(=O)N[C@@H](CC(N)=O)C(=O)N[C@@H](CSSC[C@@H](C(=O)N[C@H](C(=O)N[C@H](C(=O)N[C@@H](Cc3ccccc3)C(=O)N[C@H](C(=O)N[C@@H](CO)C(=O)NCC(=O)NCC(=O)N[C@@H](CO)C(=O)N[C@@H](CCCNC(=N)N)C(=O)N[C@@H](Cc3c[nH]c4ccccc34)C(=O)O)[C@@H](C)O)[C@@H](C)CC)C(C)C)NC(=O)[C@H](CCCNC(=N)N)NC1=O)C(=O)N[C@@H](CCCCN)C(=O)N[C@@H](C)C(=O)N1CCC[C@H]1C(=O)N[C@@H](CCC(=O)O)C(=O)N[C@@H]([C@@H](C)O)C(=O)N[C@@H](C)C(=O)N[C@@H](CCCNC(=N)N)C(=O)N2 [Analog 3] (H-CNCKAPETARCAIRCVIFTSGGSRW-OH; disulfide 1-11, 3-15)
half-life at 2.5 µg/mL (In vitro serum stability): 12.8 h | Fold improvement in serum stability versus linear counterpart (In vitro serum stability; human serum T1/2 of grafted peptide relative to linear R3 B1-27 or R3 B1-22R): 250 fold

Molecule: CC[C@H](C)[C@@H]1NC(=O)[C@H](C)NC(=O)[C@@H]2CSSC[C@H](N)C(=O)N[C@@H](CC(N)=O)C(=O)N[C@@H](CSSC[C@@H](C(=O)N[C@H](C(=O)N[C@H](C(=O)N[C@@H](Cc3ccccc3)C(=O)N[C@H](C(=O)N[C@@H](CO)C(=O)N[C@@H](CCCNC(=N)N)C(N)=O)[C@@H](C)O)[C@@H](C)CC)C(C)C)NC(=O)[C@H](CCCNC(=N)N)NC1=O)C(=O)N[C@@H](CCCCN)C(=O)N[C@@H](C)C(=O)N1CCC[C@H]1C(=O)N[C@@H](CCC(=O)O)C(=O)N[C@@H]([C@@H](C)O)C(=O)N[C@@H](C)C(=O)N[C@@H](CCCNC(=N)N)C(=O)N2 [Analog 9] (H-CNCKAPETARCAIRCVIFTSR-NH2; disulfide 1-11, 3-15)
half-life at 2.5 µg/mL (In vitro serum stability): 6.6 h | cAMP activity pEC50 ± SEM (RXFP3 [1]): No activity

Molecule: RAAPYGVRLSGREFIRAVIFTSR-NH2 [Analog 8, reference compound]
half-life at 2.5 µg/mL (In vitro serum stability): 0.0667 h

Molecule: RAAPYGVRLSGREFIRAVIFTSR-NH2 [Analog 8]
cAMP activity pEC50 ± SEM (RXFP3 [1]): No activity

Ki (RXFP3 [2]): 1230 nM
B1: relaxin-3 B-chain (R3 B1-27, analog 2) B-chain 1-27 (peptide)
chain: MARYMLLLLLAVWVLTGELWPGAEARA

Ki (RXFP3 [2]): 20.4 nM
B2: relaxin-3 (R3 acid, analog 1) (protein)
chain 1: RAAPYGVRLCGREFIRAVIFTCGGSRW
chain 2: DVLAGLSSSCCKWGCSKSEISSLC
